Assay results taken from PubChem BioAssay AID2060361 (Molecular Pharmacology Branch, DTP, NCI, 2025).

Test system: 463943-066-T-J2-PDC tumor spheroids with HUVEC/MSC, viability
Assay: Anticancer human tumor 463943-066-T-J2-PDC patient-derived colon adenocarcinoma cell line growth inhibition [TAK]
Conditions: for IC50: curve of first compound; for viability, T/C: stronger effect = lower value
Excerpt: Combinatorial screen of targeted agents with TAK-243 and ipatasertib in multi-cell type tumor spheroids
A high-throughput screen of multi-cell type tumor spheroids was designed to identify active combinations of targeted small molecules and TAK-243 or ipatasertib. Complex spheroids include a stromal component modeled by human endothelial cells (HUVEC) and fibroblasts modeled by human mesenchymal stem cells (MSCs). The concentration ranges selected for each drug and investigational agent were based upon clinically achievable concentrations if the clinical Cmax of the agent was known.
Compounds. The drugs and investigational agents: TAK-243 (785004), ipatasertib (767898), everolimus (733504), selumetinib (741078), bortezomib (756655), trametinib (758246), ixazomib (758254), vemurafenib (761431), dabrafenib (764134), sapanisertib (764658), alpelisib (765974), and copanlisib (816437), were obtained from the National Cancer Institute (NCI) Developmental Therapeutics Program Chemical Repository. The FDA-approved anticancer drug set is available from the NCI Developmental Therapeutics Program. […] The stock solutions were prepared in dimethyl sulfoxide (DMSO, Sigma-Aldrich, St. Louis, MO, cat. D2650) at 800-fold the tested concentration and stored at -70 degrees C prior to their use. All drugs and investigational agents were tested over a range starting from a high concentration at or near the clinical Cmax and decreasing in half-log increments. If the clinical Cmax for an agent had not been determined, the highest concentration tested was 10 microM.
NCI60 Cell Culture. NCI60 cell lines were obtained from the NCI Developmental Therapeutics Program Tumor Repository. For each lot of cells, the Repository performed Applied Biosystems AmpFLSTR Identifiler testing with PCR amplification to confirm consistency with the published Identifier STR profile for each cell line. Cells were kept in continuous culture for no more than 20 passages. The optimal seeding densities for each of the cell lines at each time point assessed were determined prior to performing the concentration response studies. Briefly, the NCI60 human tumor lines were grown as monolayers in RPMI 1640 medium supplemented with 10% FBS and 2 mmol/L L-glutamine.
An additional 2 lines were from the NCI60 cell line panel including melanomas, MALME-3M and SK-MEL-2. Pooled donor human umbilical vein endothelial cells (HUVEC, Lonza, cat. CC-2519) and human mesenchymal stem cells (hMSC, Lonza, cat. PT-2501) were purchased from Lonza (Walkersville, MD).
PDMR cell lines were grown in complete medium (DC medium): Dulbecco's modified Eagle's medium (DMEM)/F12 supplemented with 5% fetal bovine serum (FBS), 2 mM L-glutamine, 100 U/mL penicillin and 100 µg/ml streptomycin, 0.4 µg/ml hydrocortisone, 10 ng/ml epidermal growth factor (EGF) recombinant human protein, 24 µg/mL adenine, and 0.1 mg/mL primocin. During culture from frozen stock vials, PDMR cells were cultured in the same medium containing 10 µM Y-27632 (see Table 3). The PDCs were cultured in complete DMEM/F12 media without 10 microM Y-27632 dihydrochloride for at least two passages prior to the screen. The pooled donor HUVEC and hMSC were cultured in endothelial cell growth medium 2 (PromoCell, Heidelberg, Germany, cat. C-22011) and mesenchymal stem cell growth medium 2 (PromoCell, cat. C-28009), respectively. For all experiments, HUVEC and hMSC were used at passages </=5.
For the pre-screen, cell seeding densities were determined from a titration spanning the range from 5,000 to 313 cells per well. The mct-spheroids including 60% malignant cells, 25% HUVEC and 15% MSC dispensed as a mixture into U-bottom Ultra-Low Attachment 384-well plates (Corning, NY)
High-throughput Drug Combination Screening.
Prior to their inoculation into 384-well plates, malignant cells, HUVEC, and hMSC were removed from T flasks using TrypLE express (Thermo Fisher Scientific, cat. 12605036) and harvested by centrifugation for 5 min at 233 x g. […]

[1] = second compound 0.3 µM, first compound 0.0316 µM
[2] = second compound 0.3 µM, first compound 0.1 µM
[3] = second compound 0.3 µM, first compound 0.316 µM
[4] = second compound 0.3 µM, first compound 1 µM
[5] = second compound 0.3 µM, first compound 3.16 µM
[6] = second compound 0.3 µM, first compound 10 µM
[7] = second compound 0.949 µM, first compound 0.0316 µM
[8] = second compound 0.949 µM, first compound 0.1 µM
[9] = second compound 0.949 µM, first compound 0.316 µM
[10] = second compound 0.949 µM, first compound 1 µM
[11] = second compound 0.949 µM, first compound 3.16 µM
[12] = second compound 0.949 µM, first compound 10 µM
[13] = second compound 3 µM, first compound 0.0316 µM
[14] = second compound 3 µM, first compound 0.1 µM
[15] = second compound 3 µM, first compound 0.316 µM
[16] = second compound 3 µM, first compound 1 µM
[17] = second compound 3 µM, first compound 3.16 µM
[18] = second compound 3 µM, first compound 10 µM
[19] = second compound 9.49 µM, first compound 0.0316 µM
[20] = second compound 9.49 µM, first compound 0.1 µM
[21] = second compound 9.49 µM, first compound 0.316 µM
[22] = second compound 9.49 µM, first compound 1 µM
[23] = second compound 9.49 µM, first compound 3.16 µM
[24] = second compound 9.49 µM, first compound 10 µM
[25] = second compound 30 µM, first compound 0.0316 µM
[26] = second compound 30 µM, first compound 0.1 µM
[27] = second compound 30 µM, first compound 0.316 µM
[28] = second compound 30 µM, first compound 1 µM
[29] = second compound 30 µM, first compound 3.16 µM
[30] = second compound 30 µM, first compound 10 µM
[31] = second compound 0.3 µM, first compound 0.000316 µM
[32] = second compound 0.3 µM, first compound 0.001 µM
[33] = second compound 0.3 µM, first compound 0.00316 µM
[34] = second compound 0.3 µM, first compound 0.01 µM
[35] = second compound 0.949 µM, first compound 0.000316 µM
[36] = second compound 0.949 µM, first compound 0.001 µM
[37] = second compound 0.949 µM, first compound 0.00316 µM
[38] = second compound 0.949 µM, first compound 0.01 µM
[39] = second compound 3 µM, first compound 0.000316 µM
[40] = second compound 3 µM, first compound 0.001 µM
[41] = second compound 3 µM, first compound 0.00316 µM
[42] = second compound 3 µM, first compound 0.01 µM
[43] = second compound 9.49 µM, first compound 0.000316 µM
[44] = second compound 9.49 µM, first compound 0.001 µM
[45] = second compound 9.49 µM, first compound 0.00316 µM
[46] = second compound 9.49 µM, first compound 0.01 µM
[47] = second compound 30 µM, first compound 0.000316 µM
[48] = second compound 30 µM, first compound 0.001 µM
[49] = second compound 30 µM, first compound 0.00316 µM
[50] = second compound 30 µM, first compound 0.01 µM
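Further: spheroids exposed to drugs for seven days.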
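Wherever viability, T/C is given: 100% = DMSO vehicle control wells.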

CC(C)(C)c1nc(-c2cccc(NS(=O)(=O)c3c(F)cccc3F)c2F)c(-c2ccnc(N)n2)s1 + CC(C)NCC(C(=O)N1CCN(c2ncnc3c2C(C)CC3O)CC1)c1ccc(Cl)cc1
IC50 (second compound 0.3 µM): > 10 µM | IC50 (second compound 0.949 µM): > 10 µM | IC50 (second compound 3 µM): > 10 µM | IC50 (second compound 9.49 µM): > 10 µM | IC50 (second compound 30 µM): > 10 µM | viability, T/C [1]: 110% | viability, T/C [2]: 111% | viability, T/C [3]: 107% | viability, T/C [4]: 112% | viability, T/C [5]: 100% | viability, T/C [6]: 92.5% | viability, T/C [7]: 115% | viability, T/C [8]: 111% | viability, T/C [9]: 105% | viability, T/C [10]: 111% | viability, T/C [11]: 103% | viability, T/C [12]: 88.3% | viability, T/C [13]: 99% | viability, T/C [14]: 109% | viability, T/C [15]: 92.2% | viability, T/C [16]: 102% | viability, T/C [17]: 110% | viability, T/C [18]: 101% | viability, T/C [19]: 100% | viability, T/C [20]: 111% | viability, T/C [21]: 99.2% | viability, T/C [22]: 109% | viability, T/C [23]: 107% | viability, T/C [24]: 104% | viability, T/C [25]: 91% | viability, T/C [26]: 98.6% | viability, T/C [27]: 100% | viability, T/C [28]: 97.2% | viability, T/C [29]: 104% | viability, T/C [30]: 91.1%

CC(C)CC(NC(=O)CNC(=O)c1cc(Cl)ccc1Cl)B1OC(=O)CC(CC(=O)O)(C(=O)O)O1 (stereo not given) + CC(C)NCC(C(=O)N1CCN(c2ncnc3c2C(C)CC3O)CC1)c1ccc(Cl)cc1
IC50 (second compound 0.3 µM): > 0.1 µM | IC50 (second compound 0.949 µM): > 0.1 µM | IC50 (second compound 3 µM): > 0.1 µM | IC50 (second compound 9.49 µM): > 0.1 µM | IC50 (second compound 30 µM): > 0.1 µM | viability, T/C [31]: 117% | viability, T/C [32]: 107% | viability, T/C [33]: 106% | viability, T/C [34]: 101% | viability, T/C [1]: 88.8% | viability, T/C [2]: 80.5% | viability, T/C [35]: 98.3% | viability, T/C [36]: 102% | viability, T/C [37]: 99% | viability, T/C [38]: 105% | viability, T/C [7]: 86.9% | viability, T/C [8]: 72.6% | viability, T/C [39]: 116% | viability, T/C [40]: 98.9% | viability, T/C [41]: 95.4% | viability, T/C [42]: 98.5% | viability, T/C [13]: 83.5% | viability, T/C [14]: 80.7% | viability, T/C [43]: 91.4% | viability, T/C [44]: 123% | viability, T/C [45]: 97.2% | viability, T/C [46]: 95.2% | viability, T/C [19]: 78.1% | viability, T/C [20]: 85.7% | viability, T/C [47]: 93.8% | viability, T/C [48]: 99.1% | viability, T/C [49]: 90.6% | viability, T/C [50]: 90.4% | viability, T/C [25]: 81.3% | viability, T/C [26]: 71.7%

CC(C)n1nc(-c2ccc3oc(N)nc3c2)c2c(N)ncnc21 + CC(C)NCC(C(=O)N1CCN(c2ncnc3c2C(C)CC3O)CC1)c1ccc(Cl)cc1
IC50 (second compound 0.3 µM): > 0.1 µM | IC50 (second compound 0.949 µM): > 0.1 µM | IC50 (second compound 3 µM): > 0.1 µM | IC50 (second compound 9.49 µM): > 0.1 µM | IC50 (second compound 30 µM): > 0.1 µM | viability, T/C [31]: 112% | viability, T/C [32]: 102% | viability, T/C [33]: 105% | viability, T/C [34]: 95.2% | viability, T/C [1]: 79.6% | viability, T/C [2]: 74.1% | viability, T/C [35]: 100% | viability, T/C [36]: 97.2% | viability, T/C [37]: 81.8% | viability, T/C [38]: 78.6% | viability, T/C [7]: 82.7% | viability, T/C [8]: 78.5% | viability, T/C [39]: 95.2% | viability, T/C [40]: 106% | viability, T/C [41]: 93.4% | viability, T/C [42]: 89.8% | viability, T/C [13]: 85.3% | viability, T/C [14]: 78.2% | viability, T/C [43]: 103% | viability, T/C [44]: 91.6% | viability, T/C [45]: 91.4% | viability, T/C [46]: 88.3% | viability, T/C [19]: 82.6% | viability, T/C [20]: 74.1% | viability, T/C [47]: 86.1% | viability, T/C [48]: 106% | viability, T/C [49]: 83.2% | viability, T/C [50]: 89% | viability, T/C [25]: 82% | viability, T/C [26]: 74.6%

CCCS(=O)(=O)Nc1ccc(F)c(C(=O)c2c[nH]c3ncc(-c4ccc(Cl)cc4)cc23)c1F + CC(C)NCC(C(=O)N1CCN(c2ncnc3c2C(C)CC3O)CC1)c1ccc(Cl)cc1
IC50 (second compound 0.3 µM): > 100 µM | IC50 (second compound 0.949 µM): > 100 µM | IC50 (second compound 3 µM): > 100 µM | IC50 (second compound 9.49 µM): > 100 µM | IC50 (second compound 30 µM): > 100 µM | viability, T/C [3]: 105% | viability, T/C [4]: 102% | viability, T/C [5]: 104% | viability, T/C [6]: 99.7% | viability, T/C (second compound 0.3 µM, first compound 31.6 µM): 125% | viability, T/C (second compound 0.3 µM, first compound 100 µM): 105% | viability, T/C [9]: 108% | viability, T/C [10]: 104% | viability, T/C [11]: 103% | viability, T/C [12]: 106% | viability, T/C (second compound 0.949 µM, first compound 31.6 µM): 64.2% | viability, T/C (second compound 0.949 µM, first compound 100 µM): 110% | viability, T/C [15]: 103% | viability, T/C [16]: 109% | viability, T/C [17]: 92.7% | viability, T/C [18]: 92% | viability, T/C (second compound 3 µM, first compound 31.6 µM): 88.4% | viability, T/C (second compound 3 µM, first compound 100 µM): 104% | viability, T/C [21]: 102% | viability, T/C [22]: 109% | viability, T/C [23]: 98.2% | viability, T/C [24]: 89.6% | viability, T/C (second compound 9.49 µM, first compound 31.6 µM): 68.6% | viability, T/C (second compound 9.49 µM, first compound 100 µM): 109% | viability, T/C [27]: 87.5% | viability, T/C [28]: 94.7% | viability, T/C [29]: 91.9% | viability, T/C [30]: 88.9% | viability, T/C (second compound 30 µM, first compound 31.6 µM): 25.6% | viability, T/C (second compound 30 µM, first compound 100 µM): 95.8%
